In PubChem BioAssay AID248 (DTP/NCI, 2004):
Values joined by “and” are separate entries in the source; they are usually repeats but may differ in a detail not shown here. Equal values may be shown once. Toxic doses and inconclusive results are not listed.

System: L1210 leukemia ip in BDF1 mice, survival T/C
Experiment: NCI In Vivo Anticancer Drug Screen. Data for tumor model L1210 Leukemia (intraperitoneal) in B6D2F1 (BDF1) mice
Conditions: endpoint: mean survival time, higher = longer survival
Method in brief: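 Each compound was tested against a transplantable tumor grown in mice. The endpoint was survival, with treated animals benchmarked against vehicle controls as a simple ratio.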

[1] = dose: 100.0 mg/kg/injection, schedule: Q01DX009 (ip), vehicle: saline
[2] = dose: 100.0 mg/kg/injection, schedule: Q04DX003 (ip), vehicle: saline
[3] = dose: 200.0 mg/kg/injection, schedule: Q04DX003 (ip), vehicle: saline
[4] = dose: 400.0 mg/kg/injection, schedule: Q04DX003 (ip), vehicle: saline
[5] = dose: 100.0 mg/kg/injection, schedule: Q01DX009 (ip), vehicle: Klucel (hydroxypropylcellulose) (HPC)
[6] = dose: 100.0 mg/kg/injection, schedule: Q04DX003 (ip), vehicle: Klucel (hydroxypropylcellulose) (HPC)
[7] = dose: 200.0 mg/kg/injection, schedule: Q01DX009 (ip), vehicle: Klucel (hydroxypropylcellulose) (HPC)
[8] = dose: 200.0 mg/kg/injection, schedule: Q04DX003 (ip), vehicle: Klucel (hydroxypropylcellulose) (HPC)
[9] = dose: 400.0 mg/kg/injection, schedule: Q01DX009 (ip), vehicle: Klucel (hydroxypropylcellulose) (HPC)
[10] = dose: 400.0 mg/kg/injection, schedule: Q04DX003 (ip), vehicle: Klucel (hydroxypropylcellulose) (HPC)
[11] = dose: 100.0 mg/kg/injection, schedule: Q04DX003 (ip), vehicle: saline with Tween-80
[12] = dose: 200.0 mg/kg/injection, schedule: Q04DX003 (ip), vehicle: saline with Tween-80
[13] = dose: 400.0 mg/kg/injection, schedule: Q04DX003 (ip), vehicle: saline with Tween-80

With `COc1nc(SC)nc2[nH]ccc12` the T/C (dose: 75.0 mg/kg/injection, schedule: Q01DX001 (ip), vehicle: other) was 103 % of control, the T/C (dose: 150.0 mg/kg/injection, schedule: Q01DX001 (ip), vehicle: other) was 100 % of control and the T/C (dose: 300.0 mg/kg/injection, schedule: Q01DX001 (ip), vehicle: other) was 97 % of control.

In the case of `O=C(CCl)N1c2ccccc2Oc2cc3ccccc3cc21`, the T/C [1] is reported as 100 % of control, the T/C [2] is reported as 95 % of control and the T/C (dose: 200.0 mg/kg/injection, schedule: Q01DX009 (ip), vehicle: saline) is reported as 90 % of control. For the same compound, the T/C [3] was 101 % of control, the T/C (dose: 400.0 mg/kg/injection, schedule: Q01DX009 (ip), vehicle: saline) was 92 % of control and the T/C [4] was 92 % of control.

`O=C(Nc1ccccc1O)/C(Cl)=C/Cl` was tested, and the T/C (dose: 100.0 mg/kg/injection, schedule: Q01DX009 (ip), vehicle: saline with Tween-80) was 109 % of control, the T/C (dose: 100.0 mg/kg/injection, schedule: Q04DX003 (ip), vehicle: saline sonified) was 104 % of control and the T/C (dose: 200.0 mg/kg/injection, schedule: Q01DX009 (ip), vehicle: saline with Tween-80) was 102 % of control. The T/C (dose: 200.0 mg/kg/injection, schedule: Q04DX003 (ip), vehicle: saline sonified) was 106 % of control, the T/C (dose: 400.0 mg/kg/injection, schedule: Q01DX009 (ip), vehicle: saline with Tween-80) was 88 % of control and the T/C (dose: 400.0 mg/kg/injection, schedule: Q04DX003 (ip), vehicle: saline sonified) was 106 % of control.

For `COc1nc(C)c(C)n[n+]1C`, the T/C (dose: 75.0 mg/kg/injection, schedule: Q01DX001 (ip), vehicle: saline with Tween-80) was 107 % of control, the T/C (dose: 150.0 mg/kg/injection, schedule: Q01DX001 (ip), vehicle: saline with Tween-80) was 104 % of control and the T/C (dose: 300.0 mg/kg/injection, schedule: Q01DX001 (ip), vehicle: saline with Tween-80) was 111 % of control.

`Nc1ccc(CCO)cc1` was tested, and the T/C [2] was 105 % of control, the T/C [3] was 96 % of control and the T/C [4] was 96 % of control.

In the case of `O=C(CCl)c1ccc(Oc2ccc(C(=O)CCl)cc2)cc1`, the T/C (dose: 50.0 mg/kg/injection, schedule: Q01DX001 (ip), vehicle: saline) is reported as 100 % of control, the T/C (dose: 100.0 mg/kg/injection, schedule: Q01DX001 (ip), vehicle: saline) is reported as 97 % of control and the T/C (dose: 200.0 mg/kg/injection, schedule: Q01DX001 (ip), vehicle: saline) is reported as 97 % of control. For the same compound, the T/C (dose: 400.0 mg/kg/injection, schedule: Q01DX001 (ip), vehicle: saline) was 105 % of control.

In the case of `O=C(O)/C(=C\CCCCCC/C=C(\CCO)C(=O)O)CCO`, the T/C [5] is reported as 98 % of control, the T/C [6] is reported as 96 % of control and the T/C [7] is reported as 91 % of control. For the same compound, the T/C [8] was 93 % of control, the T/C [9] was 89 % of control and the T/C [10] was 93 % of control.

For `O=C(Nc1cc([N+](=O)[O-])ccc1Cl)N(Cc1ccccc1)c1ccccc1`, the T/C (dose: 12.5 mg/kg/injection, schedule: Q01DX009 (ip), vehicle: Klucel (hydroxypropylcellulose) (HPC)) was 94 % of control and 95 % of control, the T/C (dose: 25.0 mg/kg/injection, schedule: Q01DX009 (ip), vehicle: Klucel (hydroxypropylcellulose) (HPC)) was 94 % of control and 97 % of control and the T/C (dose: 50.0 mg/kg/injection, schedule: Q01DX009 (ip), vehicle: Klucel (hydroxypropylcellulose) (HPC)) was 89 % of control.

For `CCCCCCCCCCCSc1ccc2ccccc2c1`, the T/C (dose: 100.0 mg/kg/injection, schedule: Q01DX001 (ip), vehicle: Klucel (hydroxypropylcellulose) (HPC)) was 95 % of control and the T/C (dose: 200.0 mg/kg/injection, schedule: Q01DX001 (ip), vehicle: Klucel (hydroxypropylcellulose) (HPC)) was 90 % of control.

For `CCOC(=O)C1CCCCC1=O` (stereo not given), the T/C [5] was 88 % of control, the T/C [6] was 93 % of control and the T/C [7] was 97 % of control. The T/C [8] was 98 % of control, the T/C [9] was 111 % of control and the T/C [10] was 96 % of control.

For `C/C(=N\N=C(/C)c1ccc([N+](=O)[O-])cc1)c1ccc([N+](=O)[O-])cc1`, the T/C (dose: 100.0 mg/kg/injection, schedule: Q04DX002 (ip), vehicle: saline with Tween-80) was 98 % of control, the T/C (dose: 200.0 mg/kg/injection, schedule: Q04DX002 (ip), vehicle: saline with Tween-80) was 103 % of control and the T/C (dose: 400.0 mg/kg/injection, schedule: Q04DX002 (ip), vehicle: saline with Tween-80) was 103 % of control.

With `CC([NH-])C(C)[NH-].[Cl][Pt+2][Cl]` (stereo not given) the T/C (dose: 3.1 mg/kg/injection, schedule: Q04DX002 (ip), vehicle: Klucel (hydroxypropylcellulose) (HPC)) was 124 % of control, the T/C (dose: 6.25 mg/kg/injection, schedule: Q04DX002 (ip), vehicle: Klucel (hydroxypropylcellulose) (HPC)) was 153 % of control and the T/C (dose: 25.0 mg/kg/injection, schedule: Q04DX002 (ip), vehicle: Klucel (hydroxypropylcellulose) (HPC)) was 92 % of control.

With `Cc1cc(C)nc(/N=N/c2nc(C)cc(C)n2)n1` the T/C (dose: 55.0 mg/kg/injection, schedule: Q01DX Z (ip), vehicle: saline) was 95 % of control, the T/C (dose: 83.0 mg/kg/injection, schedule: Q01DX Z (ip), vehicle: saline) was 91 % of control and the T/C (dose: 125.0 mg/kg/injection, schedule: Q01DX Z (ip), vehicle: saline) was 103 % of control.

With `Nc1ccc(Cl)cc1C(=O)c1ccccn1` the T/C [11] was 100 % of control, the T/C [12] was 108 % of control and the T/C [13] was 97 % of control.

With `c1ccc(CC23CCCCC2N3)cc1` (stereo not given) the T/C (dose: 50.0 mg/kg/injection, schedule: Q01DX009 (ip), vehicle: saline with Tween-80) was 95 % of control.

`Nc1ccc(CCc2[nH]c(N)nc(=S)c2-c2ccc(Cl)cc2)cc1` was tested, and the T/C [12] was 110 % of control and the T/C [13] was 86 % of control.

With `Nc1nc(N)c(N=Nc2ccc(S(=O)(=O)Nc3nccs3)cc2)cc1N=Nc1ccccc1` the T/C (dose: 100.0 mg/kg/injection, schedule: Q01DX001 (ip), vehicle: carboxymethylcellulose (CMC)) was 94 % of control, the T/C (dose: 200.0 mg/kg/injection, schedule: Q01DX001 (ip), vehicle: carboxymethylcellulose (CMC)) was 92 % of control and the T/C (dose: 400.0 mg/kg/injection, schedule: Q01DX001 (ip), vehicle: carboxymethylcellulose (CMC)) was 105 % of control.

With `CNC(=S)N/N=C/c1ccccn1` the T/C (dose: 25.0 mg/kg/injection, schedule: Q04DX003 (ip), vehicle: Klucel (hydroxypropylcellulose) (HPC)) was 112 % of control, the T/C (dose: 50.0 mg/kg/injection, schedule: Q04DX003 (ip), vehicle: Klucel (hydroxypropylcellulose) (HPC)) was 97 % of control and the T/C [6] was 93 % of control. For the same compound, the T/C [8] was 101 % of control.

With `O=[N+]([O-])c1ccc2c(c1)N(CCCN1CCN(CCO)CC1)c1ccccc1S2` the T/C (dose: 12.5 mg/kg/injection, schedule: Q04DX003 (ip), vehicle: saline) was 111 % of control and the T/C (dose: 25.0 mg/kg/injection, schedule: Q04DX003 (ip), vehicle: saline) was 122 % of control.

`O=C(O)C(O)Cc1ccccc1` (stereo not given) was tested, and the T/C (dose: 90.0 mg/kg/injection, schedule: Q04DX003 (ip), vehicle: saline) was 105 % of control, the T/C [2] was 100 % of control and 107 % of control and the T/C (dose: 135.0 mg/kg/injection, schedule: Q04DX003 (ip), vehicle: saline) was 100 % of control. For the same compound, the T/C [3] was 102 % of control and 107 % of control, the T/C (dose: 300.0 mg/kg/injection, schedule: Q04DX003 (ip), vehicle: saline) was 92 % of control and the T/C [4] was 106 % of control.

`Cc1cc2[nH]c(=O)[nH]c2cc1C` was tested, and the T/C [11] was 98 % of control and the T/C [12] was 88 % of control.

`Cn1cc(C(O)CN2CCCCC2)c2ccccc21` (stereo not given) was tested, and the T/C (dose: 25.0 mg/kg/injection, schedule: Q04DX003 (ip), vehicle: saline with Tween-80) was 104 % of control and the T/C (dose: 50.0 mg/kg/injection, schedule: Q04DX003 (ip), vehicle: saline with Tween-80) was 97 % of control.

`CC1NC1(c1ccccc1)[n+]1ccccc1` (stereo not given) was tested, and the T/C (dose: 50.0 mg/kg/injection, schedule: Q01DX009 (ip), vehicle: saline) was 97 % of control, the T/C [1] was 95 % of control and the T/C [2] was 105 % of control. For the same compound, the T/C [3] was 105 % of control.
